The values that follow come from patent publication US10351577B2, “Ether analogues of galiellalactone” (Glactone Pharma Development AB, priority 2015, dated 2019).

pIC50: −log10 of the molar value.

Data set [1] concerns DU145. In words: WST-1 cell proliferation assay on DU145. The format is cell-based. The settings on record: for activity at 10 µM: Homo sapiens, DU-145, 72 h, percent of untreated control cells, read-out: Remaining cell proliferation (%) DU145; for Difference in cell proliferation @ 10 μM (%) (Selectivity) Δ LNCaP − DU145: LNCaP minus DU145. The procedure:
(§1) The functional activity of the example compounds in comparison to galiellalactone was evaluated using a WST-1 proliferation assay (J. Biol. Chem. 2014, 289:15969-15978) on DU145, LNCaP or IL-6 stimulated LNCaP.
(§2) The cells were cultured in 96-well plates (2000 cells/well in 200 μl of medium) and allowed to set for 24 h. The cells were treated with 10 μM of an example compound or galiellalactone for 72 h. Samples were made in triplicate. 20 μl WST-1 solution (Roche Applied Science) was added per well and incubated at 37° C. for 4 h. The absorbance of each well was measured using a scanning multi-well spectrophotometer, ELISA reader at a wavelength of 450 nm and reference wavelength of 690 nm. The results presented in Tables 2 and 3 below are presented as percent of untreated control cells.

Another data set deals with STAT1. In words: STAT1 luciferase reporter gene assay in HeLa cells stimulated with IFNg. The format is cell-based. The settings on record: Homo sapiens, M-HeLa, IFNg overnight. The procedure: In order to further asses the properties of the ether analogues of galiellalactone, the STAT1 activity was determined for some of the novel analogues.
On the technique in general: Reporter assays use an easily measured gene product as a stand-in for the process of interest.

In data set [2] the test system is LNCaP-IL6. Description: WST-1 cell proliferation assay on IL-6 stimulated LNCaP. It counts as cell-based. The settings on record: for activity at 10 µM: Homo sapiens, LNCaP, 72 h, percent of untreated control cells, read-out: Remaining cell proliferation (%) LNCaP-IL6; for Difference in cell proliferation @ 10 μM (%) (Selectivity) Δ LNCaP − LNCaPIL6: LNCaP minus LNCaP-IL6. The procedure: as §1, §2
On the technique in general: Tetrazolium dyes change colour on reduction, which living cells bring about.

The subject of the next data set is LNCaP. Description: WST-1 cell proliferation assay on LNCaP. The settings on record: Homo sapiens, 72 h, percent of untreated control cells, read-out: Remaining cell proliferation (%) LNCaP. It counts as cell-based. The procedure:
as §1, §2

Data set [3] concerns DU145. In words: WST-1 cell proliferation assay on DU145. The format is cell-based. The settings on record: for pIC50: Homo sapiens, DU-145, dose response study, DU145.
Data set [4] has as its system LNCaP-IL6. Description: WST-1 cell proliferation assay on IL-6 stimulated LNCaP. It counts as cell-based. The settings on record: Homo sapiens, dose response study.
The test system of the next data set is IL-6/STAT3 signaling. The settings on record: cited from earlier work.
A short description of data set [5]: Comparative pharmacokinetic study, single oral dose, plasma by LC-MS/MS. The settings on record: mouse, CD1 mice, single oral gavage 10 mg/kg. The format is in vivo. The procedure:
A pharmacokinetic study was performed in CD1 mice to establish plasma exposure following administration of single oral doses of galiellalactone and example 20. Sample analysis was by LC-MS/MS.
Dose solutions were prepared at a drug concentration of 0.5 mg/mL in 5% DMSO in 50 mM citrate buffer (citric acid/sodium citrate pH 4.0) and administered as a 20 mL/kg oral gavage (10 mg/kg).
AUC denotes the plasma exposure of the compound measured with time. More specifically, AUC 0-t is the area under the plasma drug concentration/time curve from 0 minutes to last quantifiable data point. AUC 0-∞ is the area under the plasma drug concentration/time curve from 0 minutes extrapolated to infinity.

Usually inhibition stands for the relative decrease from the control value, in per cent. On to `COc1ccnc(COC23C4=CC(C)CC2CCC3OC4=O)c1` (stereo in doubt) [Example 5, (4R,5aS,7aS,7bR)-5,5a,6,7,7a,7b-hexahydro-7b-[(4-methoxy-2-pyridinyl)methoxy]-4-methyl-indeno[1,7-bc]furan-2(4H)-one], for which, in the data set with DU145 [1], the activity at 10 µM is 19% and the “Difference in cell proliferation @ 10 μM (%) (Selectivity) Δ LNCaP − DU145” value (shortened to “Difference … (%) (Selectivity) Δ LNCaP − DU145”) was determined as 67%. Besides, in the data set on STAT1, the inhibition at 10 µM was 16%. Moreover, in the data set on LNCaP-IL6 [2], the activity at 10 µM was found to be 15% and the “Difference in cell proliferation @ 10 μM (%) (Selectivity) Δ LNCaP − LNCaPIL6” value was found to be 71%. Also, in the data set with LNCaP, the activity at 10 µM was found to be 86%.
`COc1ncccc1COC12C3=CC(C)CC1CCC2OC3=O` (stereo in doubt) [Example 7, (4R,5aS,7aS,7bR)-5,5a,6,7,7a,7b-hexahydro-7b-[(2-methoxy-3-pyridinyl)methoxy]-4-methyl-indeno[1,7-bc]furan-2(4H)-one]: in the data set on DU145 [1], the activity at 10 µM is 16.7% and the “Difference … (%) (Selectivity) Δ LNCaP − DU145” value came to 42.6%. For the same compound, in the data set on LNCaP-IL6 [2], the activity at 10 µM was 7% and the “Difference in cell proliferation @ 10 μM (%) (Selectivity) Δ LNCaP − LNCaPIL6” value is on record as 52.3%. Besides, the activity at 10 µM with LNCaP worked out at 59.3%.
On the same counts, the results for `C[C@@H]1C=C2C(=O)O[C@@H]3CCC(C1)[C@]23OCc1ccc(NC(=O)C(C)(C)C)nc1` (stereo partly drawn) [Example 9, (4R,5aS,7aS,7bR)-5,5a,6,7,7a,7b-hexahydro-7b-[(6-[(2,2-dimethyl-1-oxopropyl)amino]-3-pyridinyl]methoxy]-4-methyl-indeno[1,7-b]c furan-2(4H)-one] are 9.7%, 57.9%, 2.8%, 64.8% and 67.6%.
On the same counts, the results for `COC(=O)c1cccc(COC23C4=CC(C)CC2CCC3OC4=O)n1` (stereo in doubt) [Example 6, (4R,5aS,7aS,7bR)-5,5a,6,7,7a,7b-hexahydro-7b-[(6-methoxycarbonyl-2-pyridinyl)methoxy]-4-methyl-indeno[1,7-bc]furan-2(4H)-one] are 16.6%, 49%, 15.9%, 49.7% and 65.6%.
Consider `Cc1ccc(COC23C4=CC(C)CC2CCC3OC4=O)cn1` (stereo in doubt) [Example 1, (4R,5aS,7aS,7bR)-5,5a,6,7,7a,7b-hexahydro-7b-[(6-methyl-3-pyridinyl)methoxy]-4-methyl-indeno[1,7-bc]furan-2(4H)-one], for which, in the data set with DU145 [1], the activity at 10 µM was 12.9% and the “Difference … (%) (Selectivity) Δ LNCaP − DU145” value was determined as 50.3%. Besides, the inhibition at 10 µM in the data set on STAT1 stood at 14%. In the data set with LNCaP-IL6 [2], the activity at 10 µM turned out to be 8.6% and the “Difference in cell proliferation @ 10 μM (%) (Selectivity) Δ LNCaP − LNCaPIL6” value is given as 54.6%. For the same compound, the activity at 10 µM in the data set on LNCaP came out at 63.2%.
On to `CC1C=C2C(=O)OC3CCC(C1)C23OCc1ccc(Oc2ccccc2)nc1` (stereo in doubt) [Example 2, (4R,5aS,7aS,7bR)-5,5a,6,7,7a,7b-hexahydro-7b-[(6-phenoxy-3-pyridinyl)methoxy]-4-methyl-indeno[1,7-bc]furan-2(4H)-one], for which the figures for the activity at 10 µM in the data set on DU145 [1], with LNCaP-IL6 [2] and with LNCaP were 36.1%, 18% and 86%, respectively. In the data set with DU145 [1], the “Difference … (%) (Selectivity) Δ LNCaP − DU145” value came out at 49.9%. Also, the inhibition at 10 µM in the data set on STAT1 came to 1%. In addition, the “Difference in cell proliferation @ 10 μM (%) (Selectivity) Δ LNCaP − LNCaPIL6” value in the data set on LNCaP-IL6 [2] is 68%.
`Cc1ncccc1COC12C3=CC(C)CC1CCC2OC3=O` (stereo in doubt) [Example 8, (4R,5aS,7aS,7bR)-5,5a,6,7,7a,7b-hexahydro-7b-[(2-methyl-3-pyridinyl)methoxy]-4-methyl-indeno[1,7-bc]furan-2(4H)-one]: in the data set on DU145 [1], the activity at 10 µM was determined as 10% and the “Difference … (%) (Selectivity) Δ LNCaP − DU145” value turned out to be 44.5%. In addition, in the data set on LNCaP-IL6 [2], the activity at 10 µM was 3% and the “Difference in cell proliferation @ 10 μM (%) (Selectivity) Δ LNCaP − LNCaPIL6” value is 51.5%. In the data set on LNCaP, the activity at 10 µM came to 54.5%.
Consider `CC1C=C2C(=O)OC3CCC(C1)C23OCCc1cccnc1` (stereo in doubt) [Example 3, (4R,5aS,7aS,7bR)-5,5a,6,7,7a,7b-hexahydro-7b-[2-(3-pyridinyl)-ethoxy]-4-methyl-indeno[1,7-bc]furan-2(4H)-one], for which, in the data set on DU145 [1], the activity at 10 µM stood at 18.7% and the “Difference … (%) (Selectivity) Δ LNCaP − DU145” value was 49.9%. In the data set with STAT1, this compound displayed an inhibition at 10 µM of 38%. Also, in the data set on LNCaP-IL6 [2], the activity at 10 µM came out at 8% and the “Difference in cell proliferation @ 10 μM (%) (Selectivity) Δ LNCaP − LNCaPIL6” value is on record as 60.6%. Further, the activity at 10 µM with LNCaP is 68.6%.
Broadly, the pIC50 is −log10 of the IC50, conventionally taken in molar units. For `Cc1ccc(COC23C4=CC(C)(F)CC2CCC3OC4=O)cn1` (stereo in doubt) [Example 26, (4R,5aS,7aS,7bR)-5,5a,6,7,7a,7b-hexahydro-7b-[(6-methyl-3-pyridinyl)methoxy]-4-fluoro-4-methyl-indeno[1,7-bc]furan-2(4H)-one], in the data set on DU145 [3] (FIG. 1B dose response curves), the “Selectivity at IC90 against DU145 and LNCaP-IL6 cell proliferation over LNCaP proliferation” value was “very good selectivity”. For the same compound, the pIC50 is 5.82 in the data set on DU145 [3] and 5.97 with LNCaP-IL6 [4].
What is called AUC(0-t) is exposure summed from dosing to a finite time, without extrapolation to infinity. Broadly, the AUC(0-inf) is total exposure, with the tail of the curve extrapolated. Broadly, the half-life is the time in which the quantity being followed falls by half. As to `C[C@@H]1C=C2C(=O)O[C@@H]3CC[C@H](C1)[C@]23O` [Galiellalactone, (−)-Galiellalactone], the “Inhibition of IL-6/STAT3 signaling” value in the data set with IL-6/STAT3 signaling is reported as “submicromolar”. In data set [5] (0 min to last quantifiable data point), this compound yielded an AUC(0-t) of 82 ng·h/mL. Further, the AUC(0-inf) in data set [5] (extrapolated to infinity) is 87 ng·h/mL. Further, the half-life in data set [5] (read-out: Apparent half-life (converted)) is 1.2 h. Moreover, the activity at 10 µM in the data set on DU145 [1] was 10.8%; with LNCaP-IL6 [2], 4.7%; in the data set on LNCaP it was 43.6%. Besides, the “Difference … (%) (Selectivity) Δ LNCaP − DU145” value with DU145 [1] is 32.8%. In the data set on STAT1, this compound displayed an inhibition at 10 µM of 62%. Also, the pIC50 in the data set on DU145 [3] was 5.60; with LNCaP-IL6 [4] it was 5.94. Besides, the “Difference in cell proliferation @ 10 μM (%) (Selectivity) Δ LNCaP − LNCaPIL6” value in the data set on LNCaP-IL6 [2] is 38.9%.
As to `C[C@@H]1C=C2C(=O)O[C@@H]3CCC(C1)[C@]23OCc1ccc(N2CCOCC2)nc1` (stereo partly drawn) [Example 15, (4R,5aS,7aS,7bR)-5,5a,6,7,7a,7b-hexahydro-7b-[(6-(N-morpholino)-3-pyridinyl)methoxy]-4-methyl-indeno[1,7-bc]furan-2(4H)-one], the activity at 10 µM in the data set with DU145 [1] came to 9.6%; in the data set on LNCaP-IL6 [2], 6.5%; with LNCaP, 76.1%. Further, in the data set with DU145 [1], the “Difference … (%) (Selectivity) Δ LNCaP − DU145” value turned out to be 66.6%. In the data set on STAT1, this compound showed an inhibition at 10 µM of 53%. Also, the “Difference in cell proliferation @ 10 μM (%) (Selectivity) Δ LNCaP − LNCaPIL6” value in the data set with LNCaP-IL6 [2] amounted to 69.6%.
As for `Cc1cnc(COC23C4=CC(C)CC2CCC3OC4=O)cn1` (stereo in doubt) [Example 4, (4R,5aS,7aS,7bR)-5,5a,6,7,7a,7b-hexahydro-7b-[(5-methyl-2-pyrazinyl)methoxy]-4-methyl-indeno[1,7-bc]furan-2(4H)-one], in the data set with DU145 [1], the activity at 10 µM amounted to 11.4% and the “Difference … (%) (Selectivity) Δ LNCaP − DU145” value came to 44.1%. This compound came in with an inhibition at 10 µM with STAT1 of 12%. In the data set with LNCaP-IL6 [2], the activity at 10 µM was 10.7% and the “Difference in cell proliferation @ 10 μM (%) (Selectivity) Δ LNCaP − LNCaPIL6” value worked out at 44.8%. Further, the activity at 10 µM in the data set with LNCaP was 55.5%.
